# Data published in patent US11612572B2, “Treatment of schizophrenia using beta-caryophyllene and CB2 receptor agonists” (priority 2012, dated 2023).
# “Also recorded” adds a separate entry of the source.
# What was measured:
# [1] = target: T1, cannabinoid receptor CB2 (Homo sapiens, UniProt P34972); settings: cited from earlier work
# [2] = target: T1, cannabinoid receptor CB2; settings: at CB2; cited from earlier work
# [3] = test system: mouse model of schizophrenia; assay: Open-field test (ambulation/crossing, rearing, grooming)
# [4] = test system: CB1 receptor; assay: Expression level of CB1 receptor in brain tissue; type: in vivo; settings: PCP-treated vs control mice, 9 days old
# Protocol: (§1) Expression Level of CB1 and CB2 Receptor in Mice at 9 Days Old (mRNA) or 2 Weeks Old (Protein)
# (§2) Brain tissue of control mice (saline treated) and mice treated with PCP were analyzed in the left and right cortex and brain stem (FIGS. 7A-I; FIG. 8. Results from the cortex and brain stem were reported by the Inventors in 2011 (Anavi-Goffer et al).
# [5] = Body weight of mice in the neonatal PCP model
# [6] = test system: mouse model of schizophrenia; assay: Behavior in the Phenotyper cage; type: in vivo, mice; settings: Study II
# [7] = test system: mouse model of schizophrenia; assay: Prepulse inhibition (PPI) of the startle reflex; settings: Study I, age 8 weeks
# [8] = test system: GAD67; assay: Expression level of GAD67 in brain tissue; type: in vivo, mice; settings: PCP vs control; for GAD67 protein level: 2 weeks old; for GAD67 mRNA level: 9 days old
# Protocol: Expression Level of GAD67 in Mice at 9 Days Old (mRNA) or 2 Weeks Old (Protein)
# Brain tissue of control mice and mice treated with PCP were analyzed for GAD67, a neurochemical marker for schizophrenia (FIG. 9A-F).
# [9] = test system: CB2 receptor; assay: Expression level of CB2 receptor in brain tissue; type: in vivo, mice; settings: for mRNA expression of CB2 receptor: PCP-treated vs control mice, 9 days old
# Protocol: as §1, §2
# [10] = test system: mouse model of schizophrenia; assay: Elevated Plus Maze test; settings: Study I, age 13 weeks
# [11] = test system: MGL; assay: Expression of MGL in brain tissue; type: in vivo; settings: PCP vs control, 2 week old mice
# Description: Expression of MGL in 2 Week Old Mice
# [12] = Study III: male mice, PND 17, PCP 5 mg/kg, 1 h later BCP 10 mg/kg or BCP+AM630 10 mg/kg each, DMSO-based vehicle
# T1 sequence (P34972 whole entry): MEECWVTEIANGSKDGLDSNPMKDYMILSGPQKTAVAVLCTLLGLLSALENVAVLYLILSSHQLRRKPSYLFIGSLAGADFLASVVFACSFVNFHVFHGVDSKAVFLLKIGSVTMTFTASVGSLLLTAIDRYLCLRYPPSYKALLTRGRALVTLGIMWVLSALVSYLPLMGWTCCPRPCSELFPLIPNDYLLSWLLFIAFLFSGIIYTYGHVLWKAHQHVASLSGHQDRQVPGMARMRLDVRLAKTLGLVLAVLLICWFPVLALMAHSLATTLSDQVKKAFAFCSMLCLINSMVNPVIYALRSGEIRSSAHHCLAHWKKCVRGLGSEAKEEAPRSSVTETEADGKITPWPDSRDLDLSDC
structure (smiles),measurement,setting,value
"COc1ccc(C(=O)c2c(C)n(CCN3CCOCC3)c3cc(I)ccc23)cc1 [AM630, 6-Iodopravadoline, reference compound]",activity at CB2 receptor,[1],potent and selective inverse agonist
same,Ki,[2],32.1 nM
same,open-field behaviors compared with PCP-treated mice,"[3]; Study III: PCP+BCP+AM630 group, male mice, PND 17",not significantly different from these of PCP-treated mice
same,ambulation,[3]; [12],reversed the effects of BCP on ambulation and rearing behaviors; also recorded: reversed the effect of BCP on PCP-induced inhibition of ambulation and rearing
same,rearing,[3]; [12],reversed the effects of BCP on ambulation and rearing behaviors; also recorded: reversed the effect of BCP on PCP-induced inhibition of ambulation and rearing
"c1ccc(C2(N3CCCCC3)CCCCC2)cc1 [PCP, Phencyclidine, reference compound]",mRNA expression of CB1 receptor,[4]; brain stem,significant increase
same,mRNA expression of CB1 receptor,[4]; left or right cortex,No significant increase
same,body weight,"[5]; Study I, ethanol-based vehicle, PND 7 / first week of life (FIG. 1B)",induced a significant reduction in body weight
same,body weight,"[5]; Study I: PCP 5 mg/kg PND 3-16, BCP 10 mg/kg 1 h after PCP, ethanol-based vehicle, each day of injection PND 3-17 (FIG. 1A)",significantly reduce the body weight
same,body weight,"[5]; Study I, PND 17 (FIG. 2C)",still significant
same,body weight,"[5]; Study I, PND 35-37, males (FIG. 4A)",no significant difference in male body weight between the groups
same,body weight,"[5]; Study II: PCP 5 mg/kg, days 3, 5, 7, 10, 12, 15 and 17, male and female (FIG. 13A)",significantly reduced body weight
same,body weight,"[5]; Study II, PND 63 (FIG. 14B)",no significant difference in the body weight between vehicle-treated mice and PCP-treated mice
same,frequency of entries to the wheel,"[6]; PND 91, females and males",reduced the frequency of entries to the wheel
same,time spent in the Hidden Zone,"[6]; PND 91, females and males",increased the time spend at the Hidden Zone
same,frequency of entries to the hidden zone,"[6]; PND 91, males (FIG. 20D)",appeared to reduce the frequency of entries to the Hidden Zone in males
same,frequency of entries to the hidden zone,[6]; PND 105,increased the frequency of entries to the Hidden Zone
same,"% inhibition (ability to adjust to sound stimulus, PPI)",[7]; females (FIG. 5D),No significant difference
same,"% inhibition (ability to adjust to sound stimulus, PPI)",[7]; males (FIG. 5B),significant reduction in their ability to adjust to sound stimulus
same,GAD67 protein level,"[8]; brain stem, Western blotting (FIG. 9C)",non-significant reduction
same,GAD67 protein level,[8]; left cortex (FIG. 9A),significantly decreased
same,GAD67 protein level,[8]; right cortex (FIG. 9B),did not reach a significant level
same,GAD67 mRNA level,[8]; brain stem (FIG. 9F),increased
same,GAD67 mRNA level,[8]; left cortex (FIG. 9D),no change was found at the mRNA level
same,GAD67 mRNA level,[8]; right cortex (FIG. 9E),no change was seen in the mRNA level
same,rearing,"[3]; Study I, ethanol-based vehicle, PND 17 (FIG. 2B)",significantly inhibited both ambulation and rearing behaviors
same,ambulation (exploration),"[3]; Study I: PCP 5 mg/kg, BCP 10 mg/kg, ethanol-based vehicle, PND 17 (FIG. 2A)",significantly inhibited both ambulation and rearing behaviors
same,ambulation,"[3]; Study I, PND 17, females",more sensitive to the effect of PCP
same,rearing behavior,"[3]; Study I, PND 17, females",more sensitive to the effect of PCP
same,locomotor activity,"[3]; Study I, PND 17, males",appeared to be less sensitive to the treatment of PCP or PCP+BCP
same,rearing and exploration behaviors,"[3]; Study I, PND 35-37, females (FIGS. 4E, 4F)",no differences in rearing and exploration behaviors were seen between the different groups
same,locomotor activity,"[3]; Study I, PND 35-37, males (FIG. 4C)",significantly increased the locomotor activity compared with vehicle treatment
same,ambulation,"[3]; Study II: PCP 5 mg/kg, PND 16 (FIG. 13B)",significantly inhibited
same,rearing,"[3]; Study II: PCP 5 mg/kg, PND 16 (FIG. 13C)",significantly inhibited
same,ambulation,[3]; [12],significantly inhibited both ambulation and rearing behaviors
same,rearing,[3]; [12],significantly inhibited both ambulation and rearing behaviors
same,mRNA expression of CB2 receptor,[9]; brain stem,significant increase
same,mRNA expression of CB2 receptor,[9]; left cortex,significant increase
same,mRNA expression of CB2 receptor,[9]; right cortex,no difference between control and PCP-treated mice
same,CB2 receptor expression level,"[9]; following administration of PCP, different brain areas",selectively down-regulated in different brain areas
same,putative CB2 receptor expression,"[9]; mice neonatally treated with phencyclidine, right cortex and basal ganglia/diencephalon",up-regulation
same,time spent in the distal end of the opened arm (anxiety),"[10]; females (FIGS. 6E, 6G)",reduced the time spent in the distal end of the opened arm; also recorded: induced anxiety in female mice
same,time spent in the distal end of the opened arm (anxiety),"[10]; males (FIGS. 6F, 6H)",increased the time spent in the distal end of the opened arm; also recorded: anxiolytic effect in male mice
same,protein level of MGL,[11]; Western blotting (FIG. 10C),reduction in protein level of MGL
same,mRNA levels of MGL,[11]; left cortex (FIG. 10A),decreased
